In a melting point compilation (Tetko et al.; mined from patent text by program, amines drawn as free bases though some values may be those of a salt):

melting point [°C] | SMILES
151 to 153 | CC(C(=O)OC12CC3CC(CC(C3)C1)C2)c1ccc2nc(N)sc2c1 (configuration not stated)
81 to 82 | Cc1c(C(F)(F)F)cc([N+](=O)[O-])c(Cl)c1[N+](=O)[O-]
62 to 63 | COC(=O)C#CC(=O)c1ccc(F)cc1
86 to 99 | COc1cc(C2CCN(C(=O)CN)CC2)ccc1Nc1ncc2ccc(-c3ccccc3OC)n2n1
265 to 267 | NC(=O)c1nn(-c2ccc3c(c2)OCO3)c2c1CCc1ccc(NC(=O)c3cccnc3N)cc1-2
50 to 52 | CCCN(CCC)C(=O)n1cnc(S(=O)CCC)n1 (configuration not stated)
117 to 127 | O=C(N[C@@H](Cc1ccccc1)C(=O)NC(O)C(=O)O)OCc1ccccc1 (some centres not stated)
74 | COC(OC)C(=O)C=Cc1ccc(-c2cccs2)s1
86 to 88 | COc1cc(C(=O)Cl)ccc1S(=O)(=O)Cl
250 to 252 | CCOC(=O)c1cnc2c3c(ccc2c1)C(=O)CC=N3
125 to 126 | Cc1ccc(S(=O)(=O)n2ccc3c(CO)cccc32)cc1
212 to 215 | NC(=O)Cc1cccc(C(=O)c2ccc(Cl)cc2)c1N
> 300 | O=C(O)c1ccc(CC2(Cc3ccc(C(=O)O)cc3)C(=O)N=C3C=CC=CN32)cc1
140 to 142 | Cc1cc(C)c(S(=O)(=O)Nc2cccnc2Nc2ccccc2)c(C)c1
77 to 78 | O=C(CC(=O)C1CC1)c1ccccn1
138 to 142 | COc1ccc(CCNC[C@H](O)COc2ccc(-c3nc(C(C)=O)c[nH]3)cc2)cc1OC
119 | COc1ccc(C)cc1-c1cc2ccccc2[nH]1
92 to 93 | CCOCCc1ccc(OCCNc2ncnc3oc(C)c(C)c23)c(C)c1
154 to 156 | COc1ccc2cc(CNC(=O)c3oc4ccccc4c3C)ccc2c1Br
227 to 228 | CCCCc1sc(C(N)=O)c2c1-c1nn(C)cc1CC2
133 to 134 | O=C(O)c1cccc(OCCCc2cc(-c3ccc(C(F)(F)F)cc3)no2)c1
220 to 221 | O=C(C(=O)c1ccc(Oc2ccc(O)cc2)cc1)c1ccc(Oc2ccc(O)cc2)cc1
262 to 264 | Oc1cc(Br)nnc1-c1ccc(Cl)cc1

melting point [°C] | SMILES
90 to 91 | CCCN(CCC)C(=O)COc1nc(-c2ccccc2)nc(C)c1Cl
163 to 164 | CCOCc1nc2c(N)nc3ccccc3c2n1CCCc1cc(C)no1
81 to 82 | Cc1nc2ncnn2c(Cl)c1CCCl
200 to 201 | COc1cc2ncnc(N3CCN(C(=O)NCc4ccc(F)cc4)CC3)c2cc1OC
147 | CC(=O)OC1CSC(Oc2cccnc2)C(OC(C)=O)C1OC(C)=O (configuration not stated)
59 to 61 | Cc1c(F)c(F)cc(C#N)c1Cl
271 | O=C(O)c1ccc(CN(Cc2cc(Br)ccc2OCc2ccccc2)c2ccc(C(=O)O)cc2)cc1
187 to 189 | O=C(O)Cn1c(=S)sc2ccccc21
187 to 189 | O=C1C(Cc2ccccc2)NC(=S)N1c1ccccc1 (configuration not stated)
138 to 140 | O=C1CCCC(=O)C1C(=O)c1ccc(Cl)cc1Cl
140 to 141 | COCc1c2c(n(Cc3ccccc3)c1-c1ccccc1)C(C)CN(Cc1ccccc1)C2 (configuration not stated)
198 to 201 | CCOC(CN1C(=O)C2=C(c3ccc(Br)cc3)N(CC(OCC)OCC)C(=O)C2=C1c1ccc(Br)cc1)OCC
196 | Cc1c(C(=O)Nc2ccc(N3CCN(CCOCCO)CC3)c(C#N)c2)cnn1-c1ccc(Cl)cc1
123 to 126 | CC(C)(C)C1CCC(C2=C(O)C(=O)c3ccccc3C2=O)CC1 (configuration not stated)
129 to 130 | COC(=O)CCc1ccc(C(=C2CC(C)(C)CC(C)(C)C2)c2ccc(O)cc2)cc1
147 to 149 | CCOC(=O)c1nc2ccc(N)cc2[nH]1
176 to 178 | C[C@]1(COC(=O)N2CCN(N=Cc3ccc(C(F)(F)F)cc3)CC2)Cn2cc([N+](=O)[O-])nc2O1
207 to 208 | COc1nc2c(S(=O)(=O)c3ccccc3)c(SC)nn2c(N2CCN(C)CC2)c1C
134 to 137 | COc1ccc(-c2ccc(OC)cc2[N+](=O)[O-])c([N+](=O)[O-])c1
205 to 206 | O=[N+]([O-])c1ccc(-n2ccnn2)cc1
166 to 170 | CC(O)(c1ccc(F)cc1)c1ccc(-c2ccncc2)cc1 (configuration not stated)
266 to 270 | CCCCc1nc(N)c(N=Nc2ccccc2)c(=O)[nH]1
143 to 145 | CC1(C(=O)Nc2ccc(-n3nc(C(F)(F)F)cc3C(F)(F)F)cc2)CC1(Cl)Cl (configuration not stated)

melting point [°C] | SMILES
103 to 108 | CCCCn1nc(C(C)C)c(C(=O)O)c1Cc1ccc(-c2ccccc2-c2nnn[nH]2)cc1
184 to 185 | COc1ccc(C(=O)CCC(=O)O)cc1NC(C)=O
203 to 204 | COC(C)(C)c1ccc(Cl)c2nc3n(c12)CCCN3c1ccc(Cl)cc1Cl
167 to 169 | Cn1c2ccccc2c2ccc3ccccc3c21
110 to 113 | COC(C(=O)O)C(=O)Oc1cccc(-c2cn3c(n2)sc2ccccc23)c1 (configuration not stated)
146 to 147 | Brc1ccc2cc(Cc3cc4ccc(Br)cc4o3)oc2c1
79 to 80 | c1ccc(C(c2ccccc2)N2CCN(CCCSc3ccc4nncn4n3)CC2)cc1
178 to 179 | O=[N+]([O-])c1ccc(N2CCCC2)c(S(=O)(=O)O)c1
205 to 210 | C[C@H](c1ccccc1)n1c(=O)[nH]c2cc(Cl)cc(Cl)c2c1=O
225 to 228 | CC(=O)Nc1cccc(C(=O)c2[nH]c3cc(Cl)ccc3c2NC(C)=O)c1
120 | CCC(C)N(C(=O)c1cc(-c2ccccc2Cl)nc2ccccc12)C(C)CC (configuration not stated)
219 to 220 | O=C(O)c1cccc(-c2ccc3c(c2)N(c2cc(Cl)ccc2Cl)CC3)c1
270 to 271 | Cc1nc(-c2ccccc2)nc(-c2ccncc2)c1C(=O)O
48 | CS(=O)c1ncc(Cl)cn1 (configuration not stated)
42 to 44 | O=[N+]([O-])c1cccc(F)c1CCO
74 to 75 | O=C(c1ccc(Cl)cc1)C(CC1OCCO1)Sc1ccccc1 (configuration not stated)
232 to 234 | NC(=O)c1sc2nc(N3CCC(NCC(O)c4ccc5c(c4)OCO5)CC3)cc(C(F)(F)F)c2c1N (configuration not stated)
101 to 103 | Cc1ccc(CNC(=S)NCCO)c(C)c1
213 | NC(=S)c1ccccc1-c1ccccc1
92 to 95 | CC(C)N1C(=O)NC(c2ccc3c(c2)OCCO3)c2cc3c(cc21)OCCO3 (configuration not stated)
225 to 226 | O=C(Nc1ccccc1)c1c[nH]c2c1C(=O)CCC2

SMILES | melting point [°C]
CC(=O)OC1CC2CCC3C(CCC4(C)C3CC(N3CCCCC3)C4OC(C)=O)C2(C)CC1N1CCOCC1 (configuration not stated) | 119 to 128
COc1ccc2c(c1)C13CCN(C)C(C2)C1OC(C)(C)OC3 (configuration not stated) | 132 to 133
CC(C)(C)C(=O)OC1CCC2C3(O)C=CC4=CC(=O)CCC4(CO)C3CCC12C (configuration not stated) | 201 to 203
Cc1ccccc1C=CC(=O)c1c(C)n(CCN2CCOCC2)c2ccccc12 | 131 to 135
CN1C(=O)CN=C(c2cccc(Cl)c2)c2cc(C(=O)c3ccc(Cl)cc3)ccc21 | 176
